Laboratory results as given in patent US20070009438A1, “Method for diagnosing diabetes type 2 using standardized mixed meal and calculated index values” (DiaMedica Inc., priority 2003, published 2007).

Test: rapid insulin sensitivity test (RIST) in human volunteers before and after a standardized test meal
Format: in vivo
Conditions: 50 mU/kg insulin bolus i.v., average from 5 subjects
Procedure: Human volunteers were fasted overnight and submitted to a RIST. A stable glycemic baseline level was established by determining three consecutive stable venous glucose concentrations obtained at 5-minute intervals. […] Arterialized venous glucose concentrations were determined at 2-minute intervals and a variable glucose infusion pump was adjusted to maintain a constant blood glucose level. After completion of the first RIST index, a standardized meal consisting of a wheat-based biscuit containing 50 grams of carbohydrate was consumed within a 10-minute period. Venous glucose measurements were determined at 5-minute intervals until a new stable baseline was obtained whereupon a second RIST was carried out.
In FIG. 6, the difference between the results is plotted and is attributed to HISS action. […] Thus, the test meal provided a sufficient feeding signal to allow HISS release.

Question: With insulin as the substance, how does the “RIST index (glucose disposal in response to the insulin bolus)” value (human subjects after test meal (wheat-based biscuit, 50 grams of carbohydrate)) read?
Answer: 502 mg/kg

Question: And the “RIST index (glucose disposal in response to the insulin bolus)” value (human subjects fasted overnight)?
Answer: 180 mg/kg
